Entries after “also recorded” stand apart in the source; their conditions may differ.
What was measured:
IRT1 = target: T1, IRT1 (Arabidopsis thaliana, UniProt Q38856); assay: 55Fe uptake in fet3 fet4 yeast expressing IRT1; type: cell-based; conditions: for effect on the rate of iron uptake by IRT1: 10 μM metal, 10 times the radiolabeled iron, Fe(II) with 1 mM ascorbate, 10 min
T1 construct: contain a single 1017 bp open reading frame capable of encoding a polypeptide of 339 amino acids; expressed in transfected cells; host or cells: S. cerevisiae fet3 fet4 strain DEY1453 carrying pIRT-1 (pFL61 library vector, phosphoglycerate kinase promoter)
T1 sequence (Q38856 9-347 limits assumed): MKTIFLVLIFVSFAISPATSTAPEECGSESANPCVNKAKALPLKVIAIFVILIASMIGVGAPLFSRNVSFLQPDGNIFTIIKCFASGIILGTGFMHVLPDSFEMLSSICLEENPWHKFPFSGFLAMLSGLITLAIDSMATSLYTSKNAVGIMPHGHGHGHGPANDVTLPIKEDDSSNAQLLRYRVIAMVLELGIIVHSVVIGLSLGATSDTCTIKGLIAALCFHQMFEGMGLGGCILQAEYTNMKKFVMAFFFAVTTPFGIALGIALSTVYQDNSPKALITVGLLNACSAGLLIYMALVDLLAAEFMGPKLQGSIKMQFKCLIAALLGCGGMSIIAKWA
Description: Iron uptake assays using ^55FeCl3 (Amersham, Arlington Heights, Ill.) were performed as described (Eide, D. et al. (1992) J. Biol. Chem. 267: 20774-20781) except that MGN (10 mM Mes/2% glucose/1 mM nitrilotriacetic acid, pH 6.1) was used for the assay buffer. Where noted, 1 mM sodium ascorbate was added to reduce Fe(III) to Fe(II). Stock solutions of the chloride salt of each metal (except for iron) were prepared in water at a concentration of 100 mM and diluted into MGN to a final concentration of 10 μM before addition of the cells. The ^56FeCl3 stock was 50 mM prepared in 0.1 M HCl. The statistical significance of differences in values relative to controls was determined using STATVIEW software (Abacus Concepts, Berkeley, Calif.). Data was subjected to one-way analysis of variance (ANOVA) followed by a Scheffe's test.
To determine if IRT1 encodes an iron transporter, ^55Fe uptake rates were examined in a fet3 fet4 strain expressing IRT1. Little or no uptake was detected at 0° C. for either IRT1-expressing or untransformed control cells (FIG. 2A). The fet3 fet4 mutant strain DEY1453 (circles) and DEY1453 transformed with pIRT-1 (squares) were grown to exponential phase in SD glucose and assayed for iron uptake with ^55Fe. (A) Time- and temperature-dependence of iron accumulation assayed in MGN with 1 mM ascorbate and 5 μM ^55FeCl3 assayed at 30° C. (open symbols) or 0° C. (solid symbols). The dashed line marked with open triangles represents the IRT1-dependent accumulation, i.e., the accumulation of iron by the untransformed strain at 30° C. subtracted from the accumulation of the pIRT-1-bearing strain at 30° C. […] The IRT1-dependent rate was ≈3-fold higher than the control uptake rate. No increased uptake was apparent in strains bearing either of two randomly selected clones from the library, indicating the dependence of these uptake effects on expression of IRT1. The iron uptake activity dependent on IRT1 expression was also concentration-dependent and saturable (FIG. 2B). The same strains as in A were assayed for iron uptake rates for 10 min over a range of concentrations. The dashed lines marked with open triangles represents the IRT1-dependent uptake rate, i.e., background uptake rate of the untransformed strain subtracted from the corresponding rate of the pIRT-1-bearing strains. (Inset) Eadie-Hofstee plot of the IRT1-dependent uptake data. Each point represents the mean of three experiments each performed in duplicate. The standard deviation within each experiment was less that 20% of the corresponding mean.
The experiments described above were conducted with iron supplied as Fe(II), i.e., in the presence of ascorbate, an agent capable of reducing Fe(III) to Fe(II). To determine if Fe(II) is the preferred substrate over Fe(III), assays were carried out in the absence of ascorbate where iron is supplied to the cells as Fe(III). […] The fet3 fet4 mutant strain DEY1453 and DEY1453 transformed with pIRT-1 were grown to exponential phase is SD glucose and assayed for iron uptake with 1 μM FeCl3 in MGN for 10 min. The values shown are the IRT1-dependent rates, i.e., the untransformed strain control values were subtracted from the DEY1453 pIRT-1 values and represent the means of four replicates. The asterisks indicate significant of differences from the control values (P<0.05). Assays were performed in the absence [Fe(III)] or presence [Fe(II)] of 1 mM ascorbate. […] Although yeast are capable of reducing Fe(III) to Fe(II) through the action of plasma membrane Fe(III) reductases, this rate of cell-mediated reduction is slower than reduction by ascorbate and therefore may be rate-limiting for IRT1-dependent uptake. To assess if metals other than iron are potential substrates for IRT1, several transition metals were tested for their ability to inhibit accumulation of iron in IRT1-expressing cells (FIG. 3B). Assays were conducted in the absence (−) or presence of 10 μM metal. […]

[1] = target: T2, low affinity zinc uptake system (Zrt2p) (Saccharomyces cerevisiae, UniProt Q12436); type: cell-based
T2 construct: endogenous in cells; host or cells: S. cerevisiae ZHY1 (zrt1::LEU2) and zinc-replete DY1457; some values come from ZHY1 carrying pMC4 (multicopy genomic ZRT2) or pOE2 (ZRT2 ORF under GAL1)
Description: (§1) Zinc uptake assays were performed as described previously for iron uptake (Eide et al. J. Biol. Chem. 267:20774-20781) except that ^65ZnCl2 (Amersham Corp., Arlington Heights, Ill.) and LZM-EDTA were substituted for ^59FeCl3 and LIM-EDTA. Cells were incubated at 30° C. with ^65Zn for five minutes, filtered, and washed with 10 ml ice-cold SSW. Cell-associated radioactivity was measured by liquid scintillation. Kinetic values were derived using KinetAsyst software (IntelliKinetics, Princeton, N.J.). Zinc accumulation was measured in cells grown in LZM medium supplemented with […] ^65Zn plus nonradioactive zinc to the indicated final concentration. Aliquots (0.5 ml) were filtered, washed with 10 ml ice-cold SSW, and counted by liquid scintillation. b-galactosidase activity was assayed as described by Guarente (Guarante, L. (1983) Methods Enzymol101:181-191).
(§2) Zinc uptake assays were performed as described previously for iron uptake (Eide et al. (1992) J. Biol. Chem. 267:20774-20781) except that ^65ZnCl2 (Amersham) and LZM-EDTA were substituted for ^59FeCI3 and LIM-EDTA, respectively. Cells were incubated for 5 minutes in LZM-EDTA plus the indicated concentration of ^65Zn, collected on glass fiber filters (Schleicher and Schuell), washed with 10 ml ice-cold SSW (1 mM EDTA, 20 mM trisodium citrate, 1 mM KH2PO4, 1 mM CaCl2, 5 mM MgSO4, 1 mM NaCl pH 4.2), and cell-associated radioactivity was measured by liquid scintillation counting. Cells were starved for glucose by incubating them in LZM-EDTA prepared without glucose for one hour at 30° C. prior to assay. Michaelis-Menten kinetic values were determined using […] software (Intellikinetics, Princeton, N.J.). Stock solutions of the chloride salts of Co, Cu, Mg, Mn, and Ni were prepared in distilled water at a concentration of 100 mM. The nonradioactive ZnCl2 stock was prepared at 100 mM in 0.02 N HCl and the FeCl3 stock was prepared at 50 mM in 0.1 N HCl. The statistical significance of the differences of values relative to controls was determined with one-way analysis of variance (ANOVA) followed by a Dunnett multiple comparison test. β-galactosidase activity was assayed in cells harvested at an OD600 of 0.5-2.0 as described by Guarente (Guarente, L. (1983) Methods Enzymol. 101:181-191) and activity is expressed as the change in absorbance at 420 nm×1000 divided by (min×ml of culture used×OD600 of the culture). Cell-associated zinc was measured in parallel cultures supplemented with tracer amounts of ^65Zn (10 μM) and nonradioactive zinc to the indicated final concentration. Aliquots (0.5 ml) were filtered, washed with 10 ml ice-cold SSW, and radioactivity measured by liquid scintillation.
(§3) To determine if ZRT1 plays a role in zinc uptake, the biochemical properties of this process in wild type cells were first characterized. […] Wild type (FIG. 10, DY1457, squares) and zrt1 mutant (FIG. 10, ZHY1, circles) cells were grown to exponential phase in zinc-limited (open symbols, FIG. 10) and zinc-replete (FIG. 10, closed symbols) media and assayed for zinc uptake rate over a range ZnSO4 concentrations. Zinc-limited media was LZM+10 μM zinc for the wild type and LZM+500 μM zinc for the mutant. Zinc-replete conditions were LZM+1000 μM for both strains. ZHY1(pOE1) cells (FIG. 10, triangles) were grown in zinc-replete SDgal medium.
(§4) Mutant zrt1 (ZHY1) cells were grown in LZM supplemented with 1 mM ZnCl2. Cells were incubated with 10 μM ^65Zn for the indicated times at either […]

[2] = target: T3, high affinity zinc uptake system (Zrt1p) (Saccharomyces cerevisiae, UniProt P32804); assay: 65Zn uptake assay in yeast, high affinity zinc uptake system; type: cell-based
T3 construct: endogenous in cells; host or cells: S. cerevisiae DY1457 (wild type, zinc-limited) and ZHY2 (zrt2); one kinetic value comes from ZHY1 carrying pOE1 (ZRT1 ORF under the GAL1 promoter)
Description: as §1, §2, §3, §4

zrt1 mutant (ZHY1) cells = type: cell-based, Saccharomyces cerevisiae; conditions: 500 μM metal added to iron-limiting medium LIM (1 mM EDTA)
Description: Strains used were DY1457 (MATα ade6 can1 his3 leu2 trp1 ura3) and ZHY1 (MaTα ade6 can1 his3 leu2 trp1 ura3 zrt1:: LEU2). Yeast were grown in standard culture media (SD, YPD) (Eide, D., Davis-Kaplan S., Jordan, I., Sipe, D., and Kaplan, J. (199: 2) J. Biol. Chem. 267, 20774-20781) supplemented with necessary auxotrophic requirements and either 2% glucose or 2% galactose. A zinc-limiting medium (LZM) was prepared in the same manner as LIM (Eide and Guarenete (1992) J. Gen. Microbiol. 138:347-354) except that […]. Cell number in liquid cultures was determined by measuring the optical density of cell suspensions at 600 nm (A600) and converting to cell number with a standard curve.
Strains used were DY1457 (MATα ade6 can1 his3 leu2 trp1 ura3), ZHY1 (AMTα ade6 can1 his3 leu2 trp1 ura3 zrt1::LEU2), ZHY2 (MATα ade6 can1 his3 leu2 trp1 ura3 zrt2::HIS3), and ZHY3 (MATα ade6 can1 his3 leu2 trp1 ura3 zrt1::LEU2 zrt2::HIS3). Yeast were grown in YP or SD media (Sherman et al. (1986) Methods in Yeast Genetics, Cold Spring Harbor Laboratory, Cold Spring Harbor, N.Y.) supplemented with necessary auxotrophic requirements and either 2% glucose or 2% galactose. Zinc-limiting YP and SD agar plates contained either bathophenanthroline disulfonate (BPS, 200 μM) or EDTA (1 mM), respectively. A liquid zinc-limiting medium (low zinc medium, LZM) was prepared in the same manner as low iron medium (LIM) (Eide and Guarente (1992) J. Gen. Microbiol. 138:347-354) except that the […]. LZM is similar in composition to SD medium with two modifications essential to controlling zinc availability. First, 1 mM EDTA is added to provide buffering for the concentration of free metal ions. Second, the medium is pH-buffered at 4.2 with 20 mM citrate to prevent pH changes that could alter the metal binding ability of EDTA. LZM was also prepared without EDTA ([…]) which is less zinc-limiting because the predominant chelator in this medium, citrate, binds zinc with less affinity than does EDTA. The concentrations of free (i.e. unchelated) zinc were calculated using MAXCHELATOR software (Chris Patton, Stanford University). Cell number in liquid cultures was determined by measuring the absorbance of cell suspensions at 600 nm (OD600) and converting to cell number with a standard curve.
To examine the function of ZRT1, a disruption mutation, zrt1::LEU2, was constructed by inserting the LEU2 gene into the center of ZRT1 (FIG. 6). This zrt1 disruption allele was then introduced into a haploid yeast strain. […] Because of the high EDTA concentration in LIM (1 mM), this medium is expected to have low available levels of other metals that are bound tightly by this chelator. Supplements of other metals were tested for improved growth of the zrt1 mutant in LIM. […] To study this effect further, a low zinc medium, LZM, was developed in which cell growth could be limited by zinc deficiency and the growth response of the wild type and zrt1 mutant strains to increasing levels of supplemented zinc was examined. Wild type (DY1457, squares) and zrt1 mutant (ZHY1, circles) cells were inoculated into LZM supplemented with the indicated amount of ZnSO4 and grown for 16 hours prior to cell number determination. […] Mutant zrt1 cells attained this same maximum number of cell divisions only with zinc supplements of 750 μM or more, i.e. a 75-fold increase in the zinc requirement of the zrt1 mutant compared to the wild type.
To further assess the role of the low affinity system as a source of zinc, growth of wild type and zrt2 cells in a zinc-limiting medium, LZM, supplemented with increasing amounts of zinc was examined. The same strains as in FIG. 15 were grown for six hours in SD glucose medium, harvested, washed in LZM, and reinoculated into either LZM (FIG. 15A) or LZM-EDTA (FIG. 15B) supplemented with the indicated concentrations of ZnCl2 ([Zn]T). […]

[3] = 1 mM ascorbate, control experiments

T2 sequence (Q12436 whole entry): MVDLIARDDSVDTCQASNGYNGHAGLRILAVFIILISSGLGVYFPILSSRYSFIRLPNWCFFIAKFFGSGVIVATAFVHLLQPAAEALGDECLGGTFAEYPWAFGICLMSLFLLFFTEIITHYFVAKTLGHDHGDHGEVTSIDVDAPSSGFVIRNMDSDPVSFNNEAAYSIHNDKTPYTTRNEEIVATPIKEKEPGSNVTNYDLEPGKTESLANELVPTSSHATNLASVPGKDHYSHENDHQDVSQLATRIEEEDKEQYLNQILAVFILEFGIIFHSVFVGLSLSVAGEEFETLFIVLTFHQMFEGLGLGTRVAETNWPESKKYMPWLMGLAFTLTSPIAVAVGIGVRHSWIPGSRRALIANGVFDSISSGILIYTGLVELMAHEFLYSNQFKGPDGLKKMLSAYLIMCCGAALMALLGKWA
T3 sequence (P32804 whole entry): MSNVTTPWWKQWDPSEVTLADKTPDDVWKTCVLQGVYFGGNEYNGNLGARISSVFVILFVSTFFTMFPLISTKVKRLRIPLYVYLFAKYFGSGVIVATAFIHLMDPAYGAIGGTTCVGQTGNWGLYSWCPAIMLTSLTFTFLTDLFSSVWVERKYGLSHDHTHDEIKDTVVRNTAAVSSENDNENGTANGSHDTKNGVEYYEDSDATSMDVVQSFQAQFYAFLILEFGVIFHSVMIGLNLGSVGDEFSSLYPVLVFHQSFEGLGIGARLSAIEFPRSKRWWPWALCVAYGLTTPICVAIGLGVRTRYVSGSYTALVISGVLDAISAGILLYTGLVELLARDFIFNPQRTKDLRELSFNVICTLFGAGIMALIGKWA

[Cl][Cd][Cl] [Cd]
inhibition of IRT1-mediated Fe(II) uptake in yeast (summary statement) (IRT1): inhibitors of IRT1-mediated Fe(II) uptake; also recorded: strongly inhibited
effect on the rate of iron uptake by IRT1 (IRT1): potent inhibitors

[K+] [K^+]
inhibition of zinc uptake by the low affinity system ([1]; high extracellular K+ (100 mM)): not inhibited

[Cl-].[Cl-].[Mg+2] [Mg]
effect on zinc uptake by the high affinity system ([2]; 20 μM added metal, 2 μM 65Zn, five minutes, zinc-limited wild type): unaffected
effect on zinc uptake by the low affinity system ([1]; 200 μM added metal, 20 μM 65Zn, five minutes, zrt1 mutant cells): did not diminish zinc uptake
effect on zrt1 growth in LIM (zrt1 mutant (ZHY1) cells): no effect

[Cl-].[Cl-].[Sr+2] [Sr]
effect on the rate of iron uptake by IRT1 (IRT1): no significant effect

O=C1O[C@H]([C@@H](O)CO)C([O-])=C1O.[Na+] [ascorbate, sodium ascorbate, reference compound]
effect on the rate of zinc uptake [2, 3]: no effect
effect on the rate of zinc uptake [1, 3]: no effect
